According to patent publication US20180305332A1, “Bispiperidinyl Derivatives as Liver X Receptor Beta Agonists, Compositions, and Their Use” (Merck Sharp & Dohme Corp., priority 2015, published 2018):

Columns and labels:
[1] = biological target: T1, GST tagged LXRbeta LBD (ligand binding domain) (Homo sapiens, UniProt P55055); assay: LanthaScreen TR-FRET Liver X Receptor Coactivator Assay, LXR beta-LBD; assay type: biochemical; details: relative to reference T0901317; for EC50: Inflection Point (potency), co-activator recruitment, read-out: LXR beta IP; for Emax: activity at max dose (efficacy), read-out: LXR beta act @ max dose (%)
T1 construct: purchased Invitrogen pv4658.pps
T1 sequence (P55055 222-460 limits assumed): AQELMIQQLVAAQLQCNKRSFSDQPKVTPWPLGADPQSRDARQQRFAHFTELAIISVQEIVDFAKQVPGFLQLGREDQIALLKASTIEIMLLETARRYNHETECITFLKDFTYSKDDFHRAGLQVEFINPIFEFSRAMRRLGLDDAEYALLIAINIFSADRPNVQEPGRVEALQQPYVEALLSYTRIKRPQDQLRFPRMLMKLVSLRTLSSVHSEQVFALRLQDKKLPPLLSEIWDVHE
Method in brief: (§1)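 Compound-induced coactivator recruitment measured by TR-FRET between a terbium anti-GST antibody bound to the GST-LBD (LXRα or LXRβ, human) and a fluorescein coactivator peptide, after incubation at room temperature. Potency (inflection point) and efficacy (Emax) referenced to T0901317.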

[2] = biological target: T2, GST tagged LXRalpha LBD (ligand binding domain) (Homo sapiens, UniProt Q13133); assay: LanthaScreen TR-FRET Liver X Receptor Coactivator Assay, LXR alpha-LBD; assay type: biochemical; details: relative to reference T0901317; for EC50 / LXR alpha IP (nM): Inflection Point (potency), co-activator recruitment; for EC50: read-out: LXR alpha IP; for Emax: activity at max dose (efficacy), read-out: LXR alpha act @ max dose (%)
T2 construct: purchased Invitrogen pv4655
T2 sequence (Q13133 209-447 limits assumed): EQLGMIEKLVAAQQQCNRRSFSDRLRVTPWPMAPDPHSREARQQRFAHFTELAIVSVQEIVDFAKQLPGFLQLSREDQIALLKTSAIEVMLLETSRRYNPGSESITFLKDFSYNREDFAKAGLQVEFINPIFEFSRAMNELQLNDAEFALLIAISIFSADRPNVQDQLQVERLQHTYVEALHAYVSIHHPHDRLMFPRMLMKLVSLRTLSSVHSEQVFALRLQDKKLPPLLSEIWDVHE
Method in brief: as §1

Compound	EC50 [1] [nM]	Emax [1] [%]	EC50 [2] [nM]	Emax [2] [%]	LXR alpha IP (nM) [2]
O=C(c1ccc(N2CCC(C3CCN(C(=O)[C@](O)(c4ccccc4)C(F)(F)F)CC3)CC2)cc1Cl)N1CCC(O)C1 (stereo partly drawn) [Example E-24, 1-[(2-chloro-4-{1′-[(2R)-3,3,3-trifluoro-2-hydroxy-2-phenylpropanoyl]-4,4′-bipiperidin-1-yl}phenyl)carbonyl]pyrrolidin-3-ol]	323	76	3090	27	–
CS(=O)(=O)c1ccc(N2CCC(C3CCN(C(=O)c4c(F)cccc4F)CC3)CC2)cc1Cl [Example D-6, 1-[3-chloro-4-(methylsulfonyl)phenyl]-1′-[(2,6-difluorophenyl)carbonyl]-4,4′-bipiperidine]	380	49	772	18	–
CC(C)C(O)(C(=O)N1CCC(C2CCN(c3cc(F)c(C(=O)N(C)C)c(F)c3)CC2)CC1)C(F)(F)F [Example D-1, 2,6-difluoro-4-{1′-[2-hydroxy-3-methyl-2-(trifluoromethyl)butanoyl]-4,4′-bipiperidin-1-yl}-N,N-dimethylbenzamide]	157	101	1450	43	–
CN(C)C(=O)c1ccc(N2CCC(C3CCN(C(=O)OC(C)(C)C)CC3)CC2)nc1Cl [Example B-1, tert-butyl 1′-[6-chloro-5-(dimethylcarbamoyl)pyridin-2-yl]-4,4′-bipiperidine-1-carboxylate]	20	119	1550	74	–
CCN(CC)C(=O)c1ccc(N2CCC(C3CCN(C(=O)C(O)(C(C)C)C(F)(F)F)CC3)CC2)cc1Cl (stereo not shown) [Example E-9, 2-chloro-N,N-diethyl-4-{1′-[2-hydroxy-3-methyl-2-(trifluoromethyl)butanoyl]-4,4′-bipiperidin-1-yl}benzamide]	30	96	114	49	–
CN(C)C(=O)c1ccc(N2CCC(C3CCN(C(=O)C(C)(C)c4ccccc4Cl)CC3)CC2)cc1Cl [Example A-83, 2-chloro-4-{1′-[2-(2-chlorophenyl)-2-methylpropanoyl]-4,4′-bipiperidin-1-yl}-N,N-dimethylbenzamide]	15	115	594	74	–
CC(C)(C)OC(=O)NC1CN(C(=O)c2ccc(N3CCC(C4CCN(C(=O)OC(C)(C)C)CC4)CC3)cc2Cl)C1 [Example E-68, tert-butyl 1′-[4-({3-[(tert-butoxycarbonyl)amino]azetidin-1-yl}carbonyl)-3-chlorophenyl]-4,4′-bipiperidine-1-carboxylate]	29	92	367	64	–
COC(=O)c1ccc(N2CCC(C3CCN(C(=O)c4c(F)cccc4F)CC3)CC2)cc1Cl [Example E-2, methyl 2-chloro-4-{1′-[(2,6-difluorophenyl)carbonyl]-4,4′-bipiperidin-1-yl}benzoate]	153	25	58	26	–
CC1CCC(C)N1C(=O)c1ccc(N2CCC(C3CCN(C(=O)[C@](O)(c4ccccc4)C(F)(F)F)CC3)CC2)cc1Cl (stereo partly drawn) [Example E-27, (2R)-3-(1′-{3-chloro-4-[(2,5-dimethylpyrrolidin-1-yl)carbonyl]phenyl}-4,4′-bipiperidin-1-yl)-1,1,1-trifluoro-3-oxo-2-phenylpropan-2-ol]	53	58	–	0	NO IP
COc1ccccc1C(O)(C(=O)N1CCC(C2CCN(c3ccc(C(=O)N(C)C)c(Cl)c3)CC2)CC1)C(F)(F)F (stereo not shown) [Example A-97, 2-chloro-N,N-dimethyl-4-{1′-[3,3,3-trifluoro-2-hydroxy-2-(2-methoxyphenyl)propanoyl]-4,4′-bipiperidin-1-yl}benzamide]	114	100	2430	37	–
CN(C)C(=O)c1ccc(N2CCC(C3CCN(C(=O)C(O)(c4ccccc4F)C(F)(F)F)CC3)CC2)cc1Cl (stereo not shown) [Example A-96, 2-chloro-N,N-dimethyl-4-{1′-[3,3,3-trifluoro-2-(2-fluorophenyl)-2-hydroxypropanoyl]-4,4′-bipiperidin-1-yl}benzamide]	132	107	2340	29	–
CN(C)C(=O)c1ccc(N2CCC(C3CCN(C(=O)C(O)(C(C)(C)C)C(F)(F)F)CC3)CC2)cc1Cl (single isomer, unassigned) [Example A-6, 2-Chloro-4-(1′-(2-hydroxy-3,3-dimethyl-2-(trifluoromethyl)butanoyl)-[4,4′-bipiperidin]-1-yl)-N,N-dimethylbenzamide]	24	107	626	70	–
CS(=O)(=O)c1ccc(N2CCC(C3CCN(C(=O)[C@](O)(c4ccccc4)C(F)(F)F)CC3)CC2)cc1Cl [Example D-7, (2R)-3-{1′-[3-chloro-4-(methylsulfonyl)phenyl]-4,4′-bipiperidin-1-yl}-1,1,1-trifluoro-3-oxo-2-phenylpropan-2-ol]	180	82	413	20	–
CC(C)C(O)(C(=O)N1CCC(C2CCN(c3ccc(C(=O)N(C)C)c(Cl)n3)CC2)CC1)C(F)(F)F (stereo in doubt) [Example B-5, 2-chloro-6-{1′-[(2R)-2-hydroxy-3-methyl-2-(trifluoromethyl)butanoyl]-4,4′-bipiperidin-1-yl}-N,N-dimethylpyridine-3-carboxamide]	27	115	1100	61	–
CC(C)(C)OC(=O)N1CCC(C2CCN(c3ccc(S(C)(=O)=O)c(Cl)c3)CC2)CC1 [Example D-9, tert-butyl 1′-[3-chloro-4-(methylsulfonyl)phenyl]-4,4′-bipiperidine-1-carboxylate]	124	81	822	41	–
CN(C)C(=O)c1ccc(N2CCC(C3CCN(C(=O)C(O)(c4ccccc4)C(F)(F)C(F)(F)C(F)(F)F)CC3)CC2)cc1Cl (stereo not shown) [Example A-54, 2-chloro-4-[1′-(3,3,4,4,5,5,5-heptafluoro-2-hydroxy-2-phenylpentanoyl)-4,4′-bipiperidin-1-yl]-N,N-dimethylbenzamide]	410	75	827	15	–
O=C1CCN(C(=O)c2ccc(N3CCC(C4CCN(C(=O)[C@](O)(c5ccccc5)C(F)(F)F)CC4)CC3)cc2Cl)C1 [Example E-31]	182	79	2990	28	–
CC(C)C(O)(C(=O)N1CCC(C2CCN(c3ccc(C(=O)N(C)C)c(Cl)c3)CC2)CC1)C(F)(F)C(F)(F)F (stereo not shown) [Example A-26, 2-chloro-N,N-dimethyl-4-{1′-[3,3,4,4,4-pentafluoro-2-hydroxy-2-(1-methylethyl)butanoyl]-4,4′-bipiperidin-1-yl}benzamide]	112	103	967	45	–
Cc1cccc(C(O)(C(=O)N2CCC(C3CCN(c4ccc(C(=O)N(C)C)c(Cl)c4)CC3)CC2)C(F)(F)F)c1 (stereo not shown) [Example A-68, 2-chloro-N,N-dimethyl-4-{1′-[3,3,3-trifluoro-2-hydroxy-2-(3-methylphenyl)propanoyl]-4,4′-bipiperidin-1-yl}benzamide]	280	91	–	27	NO IP
CC(C)C(O)(C(=O)N1CCC(C2CCN(c3ccc(C(=O)N4CCOC[C@H]4C)c(Cl)c3)CC2)CC1)C(F)(F)F (stereo partly drawn) [Example E-10, 2-{[1′-(3-chloro-4-{[(3R)-3-methylmorpholin-4-yl]carbonyl}phenyl)-4,4′-bipiperidin-1-yl]carbonyl}-1,1,1-trifluoro-3-methylbutan-2-ol]	219	72	1260	32	–
CN(C)C(=O)c1ccc(N2CCC(C3CCN(C(=O)[C@](O)(c4ccccc4)C(F)(F)F)CC3)CC2)cc1Cl [Example A-13, 2-chloro-N,N-dimethyl-4-{1′-[(2R)-3,3,3-trifluoro-2-hydroxy-2-phenylpropanoyl]-4,4′-bipiperidin-1-yl}benzamide]	52	106	1510	19	–
CN(C)C(=O)c1ccc(N2CCC(C3CCN(C(=O)C4(c5ccccc5F)CCCC4)CC3)CC2)cc1Cl [Example A-45, 2-chloro-4-(1′-{[1-(2-fluorophenyl)cyclopentyl]carbonyl}-4,4′-bipiperidin-1-yl)-N,N-dimethylbenzamide]	11	108	577	53	–
